Results on six compounds are retold here after patent publication US20040176371A1, “Novel pyrazolopyrimidinethione derivatives, preparation methods thereof and their use as therapeutics for erectile dysfunction” (priority 2001, published 2004).

Series [1] has as its target T1, phosphodiesterase V (PDE V) (Rattus norvegicus, UniProt O54735).
T1 construct: Phosphodiesterases I, III and V were isolated from diaphragm kidney cortex of rat; from tissue; host or cells: rat 'diaphragm kidney cortex'
The series is described as follows: Inhibitory activity against phosphodiesterase V (method of Thompson and Appleman). It is filed as biochemical. The conditions noted are these: enzyme isolated from diaphragm kidney cortex of rat. Here is the method:
(§1) In order to identify the effects of compounds of formula 1 according to the present invention on erectile dysfunction, inhibitory activities against phosphodiesterase V and other isozymes (I, III and VI) were evaluated in accordance with the following procedure.
Phosphodiesterases I, III and V were isolated from diaphragm kidney cortex of rat, phosphodiesterase VI was isolated from retina of rat. […] A reaction mixture for enzyme activity [Total volume 100 μl: PDE enzymes (Column fraction 20˜40 μl), […] and 20 μl M calmodulin (10 μl addition for PDE I), [^3H]-cAMP, [^3H]-cGMP(1 μCi/μl), compound of formula 1 (0.01 nM˜1 μM), 50 mM Tris-HCl buffer solution (pH 7.4), 15 mM MgCl2, distilled water] was incubated in a water bath at 30° C. for 30 minutes, and then heat-denatured at 100° C. for 2 minutes to denature enzymes. After the reaction mixture was cooled down on ice, 250 μg/ml venom was added thereto. The resulting mixture was incubated at 30° C. for 10 minutes, and then 0.5 ml of cold d-H2O was added thereto to obtain a specimen. Guanine was separated from the specimen using an anion exchange resin (DEAE Sephacel A-25 anion exchange column). To measure the IC50 of specimen, radioactivity was counted by β-counter after treatment with 10 ml of scintillation cocktail solution.

Series [2] concerns the target phosphodiesterase I (PDE I). The experiment in a line: Inhibitory activity against phosphodiesterase I (method of Thompson and Appleman). It is filed as biochemical. Conditions: enzyme isolated from diaphragm kidney cortex of rat. As to the method: as §1
(§2) Phosphodiesterases I, III and V were isolated from diaphragm kidney cortex of rat, phosphodiesterase VI was isolated from retina of rat. Inhibitory activities against the isolated enzymes were evaluated by the method of Thompson and Appleman (Thompson and Appleman, Biochemistry, 1971, 10, 311-316). A reaction mixture for enzyme activity [Total volume 100 μl: PDE enzymes (Column fraction 20˜40 μl), […] and 20 μl M calmodulin (10 μl addition for PDE I), [^3H]-cAMP, [^3H]-cGMP(1 μCi/μl), compound of formula 1 (0.01 nM˜1 μM), 50 mM Tris-HCl buffer solution (pH 7.4), 15 mM MgCl2, distilled water] was incubated in a water bath at 30° C. for 30 minutes, and then heat-denatured at 100° C. for 2 minutes to denature enzymes. After the reaction mixture was cooled down on ice, 250 μg/ml venom was added thereto. The resulting mixture was incubated at 30° C. for 10 minutes, and then 0.5 ml of cold d-H2O was added thereto to obtain a specimen. Guanine was separated from the specimen using an anion exchange resin (DEAE Sephacel A-25 anion exchange column). To measure the IC50 of specimen, radioactivity was counted by β-counter after treatment with 10 ml of scintillation cocktail solution.

For series [3], the target named is phosphodiesterase III (PDE III). The experiment in a line: Inhibitory activity against phosphodiesterase III (method of Thompson and Appleman). It is filed as biochemical. Conditions: enzyme isolated from diaphragm kidney cortex of rat. As to the method:
as §1, §2

For another series, the system named is ICR mice. The series is described as follows: Acute toxicity when administered orally to mouse. It is filed as in vivo. The conditions noted are these: single oral administration, both male and female. As to the method:
In order to evaluate the toxicity of the compounds of formula 1 according to the present invention, an experiment was performed as described below.
The compound prepared in the Example 5 was administered orally to four ICR mice (2 male, 2 female) once at a dose of 128, 320, 800, 2000 and 5000 mg/kg, respectively. 7 days after the administration, mortality rate, general symptoms, changes in weight, and autopsy results were recorded.

Broadly, the IC50 is the concentration that gives 50% inhibition. Take `CCCOc1ccc(S(=O)(=O)N2CCN(CCO)CC2)cc1-c1nc2c(CCC)nn(C)c2c(=S)[nH]1` [Example 12, 5-{5-[4-(2-hydroxyethyl)piperazine-1-sulfonyl]-2-propoxyphenyl}-1-methyl-3-propyl-1,6-dihydropyrazolo[4,3-d]pyrimidine-7-thione]: the results for the IC50 in series [1], in series [2] and in series [3] were 0.00046 µM, 0.01 µM and 1.08 µM, respectively.
Consider `CCCc1nn(C)c2c(=S)[nH]c(-c3cc(S(=O)(=O)N4CCN(CCO)CC4)ccc3OCC)nc12` [Example 7, 5-{2-ethoxy-5-[4-(2-hydroxyethyl)piperazine-1-sulfonyl]phenyl}-1-methyl-3-propyl-1,6-dihydropyrazolo[4,3-d]pyrimidine-7-thione], for which the values for the half-maximal inhibitory concentration (IC50) in series [1], in series [2] and in series [3] were 0.0004 µM, 0.11 µM and 3.02 µM, respectively.
Turning to `CCCc1nn(C)c2c(=O)[nH]c(-c3cc(S(=O)(=O)N4CCN(C)CC4)ccc3OCC)nc12` [Sildenafil, reference compound], the IC50 in series [2] worked out at 2.25 µM; in series [3], 1.75 µM.
For `CCCc1nn(C)c2c(=S)[nH]c(-c3cc(S(=O)(=O)N4CCN(C)CC4)ccc3OCC)nc12` [Example 5, 5-[2-ethoxy-5-(4-methylpiperazine-1-sulfonyl)phenyl]-1-methyl-3-propyl-1,6-dihydropyrazolo[4,3-d]pyrimidine-7-thione], the values for the IC50 in series [1], in series [2] and in series [3] were 0.00059 µM, 1.89 µM and 1.25 µM, respectively. The minimal lethal dose entry in the series on ICR mice is reported as “more than 5000 mg/kg”.
In the case of `CCCOc1ccc(S(=O)(=O)N2CCN(C)CC2)cc1-c1nc2c(CCC)nn(C)c2c(=S)[nH]1` [Example 10, 1-methyl-5-[5-(4-methylpiperazine-1-sulfonyl)-2-propoxyphenyl]-3-propyl-1,6-dihydropyrazolo[4,3-d]pyrimidine-7-thione], the IC50 in series [1] turned out to be 0.00058 µM; in series [2] it was 0.62 µM; in series [3] it was 1.03 µM.
As to `CCCc1nn(C)c2c(=S)[nH]c(-c3cc(S(=O)(=O)N4CCNCC4)ccc3OCC)nc12` [Example 9, 5-[2-ethoxy-5-(piperazine-1-sulfonyl)phenyl]-1-methyl-3-propyl-1,6-dihydropyrazolo[4,3-d]pyrimidine-7-thione], the IC50 in series [1] stood at 0.00062 µM; in series [2], 2.43 µM; in series [3], 5.63 µM.
